According to patent publication EP2676666A1, “Compounds for use in diagnosis or therapy of vulnerable atherosclerotic plaques” (Eidgenössische Technische Hochschule Zürich (ETH), priority 2012, dated 2013):

Tested on: human atherosclerotic plaques
Experiment: Autoradiography binding study on human atherosclerotic plaque sections
Details: 2.5 nM; for maximal bound ^11C-Compound 4: average value (red line), 20 min, room temperature, values normalized to vulnerable plaque 8
Procedure: Compound 4 was labeled with ^11C (specific activity ~350 GBq/µmol) and human atherosclerotic sections were incubated with 2.5 nM for 20 min, room temperature. Nonspecific binding was determined in the presence of excess nonradioactive Compound 4 (100 µM). After washing to remove unspecific bound ^11C-Compound 4, slides were exposed to a radiosensitive film (BAS-5000 Fujifilm) for 30 min. Calibration standards (2.5 - 0.02 nM) were included in the cassette. Films were developed using an automatic film processor (BAS 5000, Fuji) Quantitative analysis was performed using a computerized image analysis system (AIDA Image Analyzer Software). Optical density readings, corrected for background, were made and values standardized against the linear portion of a curve generated using standards and expressed as maximal bound ^11C-Compound 4. Values were normalized to patient "vulnerable plaque 8" (Fig. 5).

- maximal bound ^11C-Compound 4 (Fig. 5 (B)): 0.7
- maximal bound ^11C-Compound 4 (Fig. 5 (C), stable plaques): 0.15
- maximal bound ^11C-Compound 4 (Fig. 5 (C), vulnerable plaques): 1.2
SMILES: [11CH3]N1CCC(NC(=O)c2ccc(-n3nc4c5cccc(F)c5[nH]nc-4c3=O)cc2)CC1 [^11C-Compound 4]
- binding to vulnerable plaques compared to stable plaques (conclusion in words from the autoradiography): higher affinity to vulnerable plaques compared to stable plaques
